Experimental data published in publication PMC8271538, “Chemical Modulation of the 1-(Piperidin-4-yl)-1,3-dihydro-2H-benzo[d]imidazole-2-one Scaffold as a Novel NLRP3 Inhibitor” (Molecules, 2021).
Read-outs that look alike come from different tables or passages of the source. Marks after values point to notes of the source that are not given here.

Key:
[1] = tested on: IL-1β release in differentiated THP-1 cells; assay: IL-1β release (ELISA) in supernatants of LPS/ATP-treated differentiated THP-1 cells; assay type: cell-based, human; settings: same experiments as pyroptosis, vs vehicle-treated cells, mean ± SEM; for inhibition at 10 µM: Homo sapiens, THP-1, 10 µM test compound; for IL-1β Inhibition, % inhibition at 10 µM: 10 µM test compound
Description: Different techniques could be used to study NLRP3 inhibitors; the use of differentiated THP-1 cells treated with NLRP3 activating stimuli is suitable for the screening of large series of compounds [48]. All the synthesised compounds (Figure 2) were evaluated for their NLRP3 inhibitory activity by measuring their ability to prevent NLRP3-dependent pyroptosis in differentiated THP-1 cells. THP-1 cells were differentiated into macrophages by treatment with phorbol-myristate acetate (PMA; 50 nM; 24 h) and then treated with lipopolysaccharide (LPS; 10 µg/mL; 4 h) to promote NLRP3 expression. The cells were then incubated with test compounds at the fixed concentration of 10 µM for 1 h. Test compounds were dissolved in serum free medium containing 0.1% DMSO as the vehicle. NLRP3 was activated by the addition of ATP (5 mM), and the pyroptotic cell death was evaluated after 1.5 h by measuring the lactate dehydrogenase (LDH) released in the cell supernatants. The obtained results, expressed as pyroptosis% decrease with respect to vehicle-treated cells, are collected in Table 1. In the same experiments, the release of IL-1β was measured via an ELISA assay and the results, expressed as % inhibition of IL-1β release versus vehicle-treated cells, are reported in Table 1. Finally, the cytotoxicity of the synthesised compounds was evaluated by MTT assay after treatment of THP-1 cells with increasing concentration of test compounds (0.1–100 µM) for 72 h. […] The structural modulation of compound 2 was then carried out in order to understand whether it was possible to restore/increase the activity without the re-introduction of a Michael acceptor substructure.
Human myelomonocytic THP-1 cells were cultured in RPMI 1640 medium (Aurogene, Rome, Italy) supplemented with fetal bovine serum (10%; Aurogene), L-glutamine (2 mM; Aurogene), penicillin (100 IU/mL; Aurogene) and streptomycin ([…]; Aurogene). Cell culture medium was replaced every 2−3 days, and the cultures were maintained at 37 °C and 5% CO2 in a fully humidified incubator. The day before each experiment, cells were plated in 48-well culture plates (90.000 cells/well) and were differentiated by treatment with PMA (50 nM, 24 h; Sigma-Aldrich). PMA-differentiated THP-1 cells were washed twice with phosphate-buffered saline (PBS) and primed with LPS (10 μg/mL, 4 h; Sigma-Aldrich) in serum-free medium. Cells were then incubated with compounds dissolved in medium containing 0.1% DMSO for 1 h and cell death was triggered with ATP (5 mM, 90 min; Sigma-Aldrich). MCC950 (Sigma-Aldrich batch #45216 and batch #85021 and from Crysdot (product n. CD31002496; OS05876-18070932) was used in the experiments.
IL-1β release was quantified in differentiated THP-1 supernatant, obtained as previously described, using Human IL-1 beta Uncoated ELISA kit (Invitrogen, Waltham, MA, USA), according to the manufacture’s instruction.

[2] = tested on: NLRP3-dependent pyroptosis in differentiated THP-1 cells; assay: NLRP3-dependent pyroptosis (LDH release) in PMA-differentiated, LPS-primed, ATP-triggered THP-1 cells; assay type: cell-based, human; settings: for inhibition at 10 µM: THP-1, 1.5 h, read-out: Pyroptosis Decrease, % inhibition at 10 µM; for inhibition at 1 µM: THP-1, 1 µM test compound (Figure 3)
human recombinant NLRP3 = target: T1, human recombinant NLRP3 (Homo sapiens, UniProt Q96P20); assay: In vitro NLRP3 ATPase activity, on-bead ADP-Glo assay with immobilised NLRP3-GFP; assay type: biochemical; settings: for Inhibition of NLRP3 ATPase activity (% reduction in ATP hydrolysis relative to vehicle control) / inhibition at 100 µM: 100 μM compound, ATP 800 μM, mean ± SEM, n = 4; for inhibition at 100 µM: read-out: Inhibition of NLRP3 ATPase activity (% reduction in ATP hydrolysis relative to vehicle control); for NLRP3 ATPase inhibition at 1 mM compared with 100 µM: 1 mM vs 100 µM compound, data not shown
T1 construct: made in house; host or cells: HEK293T cells (transient transfection, captured from lysate on GFP-Trap Sepharose)

[3] = 72 h treatment, 0.1–100 µM, MTT, TC50 ± SEM of three experiments
[4] = Homo sapiens, 10 µM test compound, 1 h before ATP (5 mM, 90 min), vs vehicle-treated cells, mean ± SEM, NA = not active at 10 µM
[5] = 10 µM test compound, 1 h before ATP (5 mM, 90 min), vs vehicle-treated cells, mean ± SEM, NA = not active at 10 µM

T1 sequence (Q96P20 whole entry): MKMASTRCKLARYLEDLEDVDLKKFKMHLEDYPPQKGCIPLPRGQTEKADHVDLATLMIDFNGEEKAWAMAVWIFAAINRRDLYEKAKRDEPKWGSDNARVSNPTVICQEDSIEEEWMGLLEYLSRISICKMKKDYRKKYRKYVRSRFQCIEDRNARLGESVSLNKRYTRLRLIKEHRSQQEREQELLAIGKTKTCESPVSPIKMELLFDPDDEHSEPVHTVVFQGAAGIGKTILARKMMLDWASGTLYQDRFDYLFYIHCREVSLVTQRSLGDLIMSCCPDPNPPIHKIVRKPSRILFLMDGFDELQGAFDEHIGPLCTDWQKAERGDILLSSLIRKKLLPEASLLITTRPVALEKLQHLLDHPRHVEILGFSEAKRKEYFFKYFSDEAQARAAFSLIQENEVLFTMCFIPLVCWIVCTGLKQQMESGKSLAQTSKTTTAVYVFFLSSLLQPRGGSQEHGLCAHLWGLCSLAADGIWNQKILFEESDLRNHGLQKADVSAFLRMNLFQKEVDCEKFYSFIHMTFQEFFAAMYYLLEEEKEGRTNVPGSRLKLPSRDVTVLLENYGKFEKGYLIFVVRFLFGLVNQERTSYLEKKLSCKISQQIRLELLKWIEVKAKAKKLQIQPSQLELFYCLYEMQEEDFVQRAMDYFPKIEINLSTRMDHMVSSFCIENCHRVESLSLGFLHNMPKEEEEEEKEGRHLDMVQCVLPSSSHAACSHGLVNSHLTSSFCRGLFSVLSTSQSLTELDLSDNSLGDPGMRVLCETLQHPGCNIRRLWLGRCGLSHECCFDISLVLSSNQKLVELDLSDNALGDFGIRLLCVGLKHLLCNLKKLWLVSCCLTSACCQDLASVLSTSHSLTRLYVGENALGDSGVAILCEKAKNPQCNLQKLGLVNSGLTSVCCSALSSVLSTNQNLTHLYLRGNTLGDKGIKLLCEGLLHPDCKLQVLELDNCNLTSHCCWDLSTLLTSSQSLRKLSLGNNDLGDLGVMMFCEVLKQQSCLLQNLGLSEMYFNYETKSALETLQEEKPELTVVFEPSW

Compound	Cytotoxicity TC50 (THP-1 cells; [3]) [µM]	inhibition at 10 µM [1] [%]	inhibition at 10 µM [2, 4] [%]	Inhibition of NLRP3 ATPase activity (% reduction in ATP hydrolysis relative to vehicle control) (human recombinant NLRP3)	Pyroptosis Decrease, % inhibition at 10 µM [2, 5]	further results
CNC(=NC#N)NC1CCN(C(=O)CCc2ccccc2Cl)CC1 [Compound 12, 1-(1-(3-(2-chlorophenyl)propanoyl)piperidin-4-yl)-2-cyano-3-methylguanidine]	>100	19 ± 0.4	15.7 ± 9.1	–	–	–
CC(C)(O)c1coc(S(=O)(=O)NC(=O)Nc2c3c(cc4c2CCC4)CCC3)c1 [MCC950, reference compound]	>100	37.6 ± 6	–	–	–	–
1-(1-(2-(2-chlorophenyl)acetyl)piperidin-4-yl)-1,3-dihydro-2H-benzo[d]imidazol-2-one [Compound 4]	–	–	–	reduce	–	Cytotoxicity TC50 (THP-1 cells): 80.9 ± 3.2 µM; Pyroptosis Decrease, % inhibition at 10 µM [2]: inactive
O=C(O)Cn1c(=O)n(C(=O)CCc2ccccc2Cl)c2ccccc21 [Compound 18, 2-(3-(3-(2-chlorophenyl)propanoyl)-2-oxo-2,3-dihydro-1H-benzo[d]-imidazol-1-yl)acetic acid]	>100	21.1 ± 3.1	36.4 ± 11.1	able to reduce ATPase activity	active	inhibition at 100 µM (human recombinant NLRP3): 27.2 ± 6.3%; NLRP3 ATPase inhibition at 1 mM compared with 100 µM (human recombinant NLRP3): no significant differences; inhibition at 1 µM ([2]; Homo sapiens): 20 to 30%
O=C(CCc1ccccc1Cl)NCCn1c(=O)[nH]c2ccccc21 [Compound 9, 3-(2-chlorophenyl)-N-(2-(2-oxo-2,3-dihydro-1H-benzo[d]imidazol-1-yl)ethyl) propanamide]	87.1 ± 1.9	20.3 ± 1.3	39.2 ± 6.6	restored the ATPase inhibition	–	inhibition at 100 µM (human recombinant NLRP3): 18.3 ± 3.2%; NLRP3 ATPase inhibition at 1 mM compared with 100 µM (human recombinant NLRP3): no significant differences; inhibition at 1 µM ([2]; Homo sapiens): 20 to 30%
O=C(CCc1ccccc1Cl)N1CCC(n2c(=O)[nH]c3ccccc32)CC1 [Compound 2, 1-(1-(3-(2-chlorophenyl)propanoyl)piperidin-4-yl)-1,3-dihydro-2H-benzo[d]imidazol-2-one]	64.1 ± 4.7	10.3 ± 5.8	14.9 ± 5.8	–	–	inhibition at 100 µM (human recombinant NLRP3): 28.6 ± 5.5%; inhibition at 50 µM ([2]; Homo sapiens, THP-1, 50 µM test compound): 29.1 ± 4.8%
O=C(O)Cn1c(=O)n(CCc2ccccc2Cl)c2ccccc21 [Compound 23, 2-(3-(2-chlorophenethyl)-2-oxo-2,3-dihydro-1H-benzo[d]imidazol-1-yl)acetic acid]	62.4 ± 1.2	13.9 ± 16.4	26.3 ± 3.5	–	–	–
O=C(CCc1ccccc1Cl)NCCCn1c(=O)[nH]c2ccccc21 [Compound 10, 3-(2-chlorophenyl)-N-(3-(2-oxo-2,3-dihydro-1H-benzo[d]imidazol-1-yl)propyl) propanamide]	>100	–	–	no effect on ATPase inhibition was detected	inactive	–
N#CN=c1[nH]c2ccccc2n1C1CCN(C(=O)CCc2ccccc2Cl)CC1 [Compound 15, N-(1-(1-(3-(2-chlorophenyl)propanoyl)piperidin-4-yl)-1,3-dihydro-2H-benzo[d]imidazol-2-ylidene)cyanamide]	83.4 ± 0.8	–	–	significant inhibition of ATPase activity	inactive	–
3-(2-chlorophenyl)-N-(4-oxo-4-(4-(2-oxo-2,3-dihydro-1H-benzo[d]imidazol-1-yl)piperidin-1-yl)butyl)propenamide [Compound 8]	–	–	–	–	32.2 ± 10.6 ^d %	Cytotoxicity TC50 (THP-1 cells): 86.3 ± 5.1 µM
O=C(CCc1ccccc1Cl)n1c(=O)[nH]c2ccccc21 [Compound 16, 1-(3-(2-chlorophenyl)propanoyl)-1,3-dihydro-2H-benzo[d]imidazol-2-one]	77.3 ± 3.7	14.9 ± 8.8	37.7 ± 7.6	–	–	–
3-(2-chlorophenyl)-N-(2-oxo-2-(4-(2-oxo-2,3-dihydro-1H-benzo[d]imidazol-1-yl)piperidin-1-yl)ethyl)propenamide [Compound 6]	–	–	–	22.5 ± 1.4%	about 35%	Cytotoxicity TC50 (THP-1 cells): 61.7 ± 1.0 µM; IL-1β Inhibition, % inhibition at 10 µM ([1]; 10 µM): 18–21%; IL-1β Inhibition, % inhibition at 10 µM ([1]; listed as 6 (INF148), 10 µM): 21.0 ± 3.2 ^d %; NLRP3 ATPase inhibition at 1 mM compared with 100 µM (human recombinant NLRP3): no significant differences; Pyroptosis Decrease, % inhibition at 10 µM ([2]; 10 µM test compound, 1 h before ATP (5 mM, 90 min), vs vehicle-treated cells, mean ± SEM, NA = not active at 10 µM, listed as 6 (INF148)): 35.0 ± 6.9 ^d %
3-(2-chlorophenyl)-N-methyl-N-(3-(2-oxo-2,3-dihydro-1H-benzo[d]imidazole-1-yl)propyl)propenamide [Compound 11]	–	–	–	–	–	Pyroptosis Decrease, % inhibition at 10 µM [2]: inactive
CCOC(=O)Cn1c(=O)n(C(=O)CCc2ccccc2Cl)c2ccccc21 [Compound 17, Ethyl 2-(3-(3-(2-chlorophenyl)propanoyl)-2-oxo-2,3-dihydro-1H-benzo[d]-imidazol-1-yl)acetate]	95.4 ± 1.1	24.2 ± 11.2	25.1 ± 4	inactive	–	–
O=C(CCc1ccccc1Cl)NCCC(=O)N1CCC(n2c(=O)[nH]c3ccccc32)CC1 [Compound 7, 3-(2-chlorophenyl)-N-{3-oxo-3-[4-(2-oxo-2,3-dihydro-1,3-benzodiazol-1-yl)piperidin-1-yl]propyl}propanamide]	62.4 ± 13.3	18 to 21	~35	–	–	IL-1β Inhibition, % inhibition at 10 µM ([1]; 10 µM): 17.8 ± 7.5%
2-(3-(3-(2-chlorophenyl)propanoyl)-2-oxo-2,3-dihydro-1H-benzo[d]- imidazol-1-yl)propionic acid [Compound 21]	–	–	–	reduced the inhibitory potential	the activity was suppressed	Cytotoxicity TC50 (THP-1 cells): 80.1 ± 1.4 µM
CCOC(=O)Cn1c(=O)n(CCc2ccccc2Cl)c2ccccc21 [Compound 22, Ethyl 2-(3-(2-chlorophenethyl)-2-oxo-2,3-dihydro-1H-benzo[d]imidazol-1-yl) acetate]	92.8 ± 2.1	–	–	–	–	–
O=C(CCc1ccccc1Cl)N1CCC(n2cnc3ccccc32)CC1 [Compound 14, 1-(4-(1H-benzo[d]imidazol-1-yl)piperidin-1-yl)-3-(2-chlorophenyl)propan-1-one]	92.6 ± 4.0	–	–	–	inactive	–
Ethyl 2-(3-(3-(2-chlorophenyl)propanoyl)-2-oxo-2,3-dihydro-1H-benzo[d] imidazol-1-yl)propanoate [Compound 20]	–	–	–	–	24.4 ± 6.8%	Cytotoxicity TC50 (THP-1 cells): 57.6 ± 3.2 µM; IL-1β Inhibition, % inhibition at 10 µM [1]: 13.8 ± 5.4%
